We go through eleven compounds from paper PMC7329864, “Role of water in cyclooxygenase catalysis and design of anti-inflammatory agents targeting two sites of the enzyme” (Scientific Reports, 2020).

“Also recorded” adds a separate entry of the source. Read-outs that look alike come from different tables or passages of the source.

Assay [1] addresses T1, wt COX-2 (Homo sapiens, UniProt P35354).
T1 construct: purchased Cayman Chemical Co. item no; 560131
T1 sequence (P35354 18-604): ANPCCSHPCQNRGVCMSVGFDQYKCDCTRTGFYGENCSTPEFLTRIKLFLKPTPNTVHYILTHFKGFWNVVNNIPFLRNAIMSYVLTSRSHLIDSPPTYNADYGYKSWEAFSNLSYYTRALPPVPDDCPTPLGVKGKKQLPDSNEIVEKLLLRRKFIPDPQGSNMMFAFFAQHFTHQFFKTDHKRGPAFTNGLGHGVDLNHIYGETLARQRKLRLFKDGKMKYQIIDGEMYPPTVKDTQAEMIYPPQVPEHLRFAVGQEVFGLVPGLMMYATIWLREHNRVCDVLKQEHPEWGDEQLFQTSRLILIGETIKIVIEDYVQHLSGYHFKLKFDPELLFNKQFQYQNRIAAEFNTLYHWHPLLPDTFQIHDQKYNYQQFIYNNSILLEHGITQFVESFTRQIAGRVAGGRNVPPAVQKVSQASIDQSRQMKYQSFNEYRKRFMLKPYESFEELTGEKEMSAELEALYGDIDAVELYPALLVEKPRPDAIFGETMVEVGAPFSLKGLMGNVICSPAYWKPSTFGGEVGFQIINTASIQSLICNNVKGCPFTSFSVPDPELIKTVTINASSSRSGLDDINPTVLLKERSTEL
In words: COX inhibitory enzyme immunoassay (COX-2). It counts as biochemical. Conditions: for IC50: enzyme immunoassay, screened at 10^–4–10^–8 M, average of 3 experiments, SD ± 0.5 µM; for SI (IC50(COX-1)/IC50 (COX-2): selectivity index COX-1/COX-2. The procedure:
(§1) All the compounds of Fig. 9 were screened for COX-1/2 inhibitory activity in triplicate at 10^–4–10^–8 M concentration by performing enzyme immunoassays. The activity of the compounds was quantified in terms of amount of prostaglandins produced by the enzymes in the presence of different concentrations of the compound.
(§2) For studying the COX-1, COX-2 inhibitory activities of the compounds, various reagents were prepared as per the protocol of the assays. The compounds were screened in triplicate at 10^–4–10^–8 M concentration using the procedure as described in the previous report.

Assay [2] concerns the target T2, COX-1 (Ovis aries, UniProt P05979).
T2 construct: purchased Cayman Chemical Co. item no; 560131
T2 sequence (P05979 25-600): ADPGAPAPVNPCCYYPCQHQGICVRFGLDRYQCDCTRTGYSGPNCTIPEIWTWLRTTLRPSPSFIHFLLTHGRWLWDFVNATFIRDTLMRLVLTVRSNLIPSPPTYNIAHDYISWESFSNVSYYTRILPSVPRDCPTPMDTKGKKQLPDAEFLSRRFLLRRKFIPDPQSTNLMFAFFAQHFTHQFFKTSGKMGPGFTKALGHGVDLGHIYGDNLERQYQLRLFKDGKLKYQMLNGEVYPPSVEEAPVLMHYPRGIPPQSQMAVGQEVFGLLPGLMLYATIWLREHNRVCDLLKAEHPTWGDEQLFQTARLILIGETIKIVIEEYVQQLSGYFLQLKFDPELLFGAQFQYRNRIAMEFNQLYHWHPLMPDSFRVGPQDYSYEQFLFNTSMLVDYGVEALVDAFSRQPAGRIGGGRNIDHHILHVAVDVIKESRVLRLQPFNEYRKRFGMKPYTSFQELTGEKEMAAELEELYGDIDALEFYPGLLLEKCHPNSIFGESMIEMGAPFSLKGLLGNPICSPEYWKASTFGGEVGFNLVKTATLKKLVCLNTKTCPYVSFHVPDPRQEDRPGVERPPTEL
Briefly: COX inhibitory enzyme immunoassay (COX-1). It counts as biochemical. The protocol: as §1, §2

The target of assay [3] is T3, COX-2 (Homo sapiens, UniProt P35354).
T3 sequence (P35354 18-604): T1 sequence (P35354 18-604)
In words: UV-Vis and fluorescence studies of interaction with COX-2. In kind it is binding. Conditions: addition of COX-2 in Tris–HCl buffer pH 7.25 to solution of compound. The text has this:
In order to support in-silico experiments, the interactions of 1, 13d and 15d with COX-2 were checked with UV–vis and fluorescence spectral techniques. […] The appearance of level-off in the visible region (500–700 nm) was attributed to the Mie scattering due to the formation of aggregates. […] Corroborating the results of molecular modelling studies, the changes in the UV–Vis spectra as well as the fluorescence spectrum of the compound on addition of COX-2 probably occurred due to the HOMO–LUMO interactions between 1 and the enzyme (Figure S26). The linear Stern–Volmer plot of decrease in fluorescence intensity at 567 nm on increasing COX-2 concentration gave Stern–Volmer constant Ksv 3.30 × 10^4 M^-1. The detection limit of the compound for COX-2 was 0.02 nM (Figure S26C,D).
In order to support in-silico experiments, the interactions of 1, 13d and 15d with COX-2 were checked with UV-vis and fluorescence spectral techniques. […] The appearance of level-off in the visible region (500-700 nm) was attributed to the Mie scattering due to the formation of aggregates. […] Corroborating the results of molecular modelling studies, the changes in the UV-Vis spectra as well as the fluorescence spectrum of the compound on addition of COX-2 probably occurred due to the HOMO-LUMO interactions between 1 and the enzyme (Figure S27). The linear Stern-Volmer plot of decrease in fluorescence intensity at 567 nm on increasing COX-2 concentration gave Stern-Volmer constant Ksv 3.30x10^4 M^-1. The detection limit of the compound for COX-2 was 0.02 nM (Figure 27C, 27D).

Where [4] appears, read: enzyme immunoassay, screened at 10^–4–10^–8 M, average of 3 experiments, SD ± 0.5 µM, read-out: IC50 COX-1.

As for `Cn1cc(/C=C2\C(=O)N(CCCn3c4ccccc4c(=O)c4ccccc43)c3ccccc32)c2ccccc21` [Compound 7, (Z)-10-(3-(3-((1-methyl-1H-indol-3-yl)methylene)-2-oxoindolin-1-yl)propyl)acridin-9(10H)-one], in assay [1], half-maximal inhibition (IC50) required 22000 nM and the “SI (IC50(COX-1)/IC50 (COX-2)” value is reported as above 4.5. Also, the 50% inhibitory concentration (IC50) – broadly, the concentration that inhibits the measured activity by half – in assay [2] (setting [4]) is above 100 µM.
Turning to `Cn1cc(/C=C2\C(=O)N(CCCCCCn3c4ccccc4c(=O)c4ccccc43)c3ccccc32)c2ccccc21` [Compound 5, (Z)-10-(6-(3-((1-Methyl-1H-indol-3-yl)methylene)-2-oxoindolin-1-yl)hexyl)acridin-9(10H)-one], in assay [1], the IC50 was found to be 150 nM and the “SI (IC50(COX-1)/IC50 (COX-2)” value turned out to be 350. The IC50 in assay [2] (setting [4]) came out at 53 µM.
For `Cn1cc(/C=C2\C(=O)N(CCCCCn3c4ccccc4c(=O)c4ccccc43)c3ccccc32)c2ccccc21` [Compound 6, (Z)-10-(5-(3-((1-Methyl-1H-indol-3-yl)methylene)-2-oxoindolin-1-yl)pentyl)acridin-9(10H)-one], in assay [1], the midpoint of inhibition, the IC50, lay at 350 nM and the “SI (IC50(COX-1)/IC50 (COX-2)” value is 160. Also, the half-maximal inhibitory concentration (IC50) in assay [2] (setting [4]) was found to be 60 µM.
Take `CN1C(=O)C(=Cc2cn(CCCCCCn3c4ccccc4c(=O)c4ccccc43)c3ccccc23)C(=O)N(C)C1=O` [Compound 4]: in assay [1], it took 2150 nM to reach half-maximal inhibition (IC50) and the “SI (IC50(COX-1)/IC50 (COX-2)” value was found to be 15. The IC50 in assay [2] turned out to be 33 µM.
For the compound `COc1cc(/C=C2\C(=O)N(CCCCCCn3c4ccccc4c(=O)c4ccccc43)c3ccccc32)cc(OC)c1O` [Compound 8, (Z)-10-(6-(3-(4-Hydroxy-3,5-dimethoxybenzylidene)-2-oxoindolin-1-yl)hexyl)acridin-9(10H)-one], the IC50 in assay [1] was determined as 120 nM; in assay [2] (setting [4]) it was 48 µM. The “SI (IC50(COX-1)/IC50 (COX-2)” value in assay [1] is 400.
Turning to `O=C1NC(=O)C(=Cc2cn(CCCn3c4ccccc4c(=O)c4ccccc43)c3ccccc23)C(=O)N1` [Compound 3, 5-((1-(3-(9-Oxoacridin-10(9H)-yl)propyl)-1H-indol-3-yl)methylene)pyrimidine-2,4,6 (1H, 3H, 5H)-trione], the IC50 in assay [1] was 10000 nM; in assay [2] it was above 100 µM. The “SI (IC50(COX-1)/IC50 (COX-2)” value in assay [1] is listed as above 10.
Take `O=c1c2ccccc2n(CCCCCCBr)c2ccccc12` [Compound 13d, 10-(6-Bromohexyl)acridin-9(10H)-one]: the IC50 is 48500 nM in assay [1] and above 100 µM in assay [2] (setting [4]). In addition, in assay [1], the “SI (IC50(COX-1)/IC50 (COX-2)” value is above 2. In addition, in assay [3], the “decrease in fluorescence intensity (quenching) in the presence of COX-2” value is “Small decrease; also recorded: much less”.
With `COc1cc(/C=C2\C(=O)N(CCCCCn3c4ccccc4c(=O)c4ccccc43)c3ccccc32)cc(OC)c1O` [Compound 9, (Z)-10-(5-(3-(4-Hydroxy-3,5-dimethoxybenzylidene)-2-oxoindolin-1-yl)pentyl)acridin-9(10H)-one], in assay [1], the midpoint of inhibition, the IC50, lay at 230 nM and the “SI (IC50(COX-1)/IC50 (COX-2)” value is reported as 250. For the same compound, the IC50 in assay [2] (setting [4]) worked out at 52 µM.
Regarding `COc1cc(/C=C2\C(=O)N(CCCn3c4ccccc4c(=O)c4ccccc43)c3ccccc32)cc(OC)c1O` [Compound 10, (Z)-10-(3-(3-(4-Hydroxy-3,5-dimethoxybenzylidene)-2-oxoindolin-1-yl)propyl)acridin-9(10H)-one], in assay [1], the IC50 came to 12000 nM and the “SI (IC50(COX-1)/IC50 (COX-2)” value is above 8. Also, the IC50 in assay [2] (setting [4]) was above 100 µM.
Turning to `O=Cc1cn(CCCCCCn2c3ccccc3c(=O)c3ccccc32)c2ccccc12` [Compound 15d, 1-(6-(9-Oxoacridin-10(9H)-yl)hexyl)-1H-indole-3-carbaldehyde], in assay [1], the IC50 is 23500 nM and the “SI (IC50(COX-1)/IC50 (COX-2)” value is listed as above 4. The IC50 in assay [2] is above 100 µM. Moreover, the “decrease in fluorescence intensity (quenching) in the presence of COX-2” value in assay [3] is listed as “Small decrease; also recorded: much less”.
In the case of `O=C1NC(=O)C(=Cc2cn(CCCCCn3c4ccccc4c(=O)c4ccccc43)c3ccccc23)C(=O)N1` [Compound 2, 5-((1-(5-(9-Oxoacridin-10(9H)-yl)pentyl)-1H-indol-3-yl)methylene)pyrimidine-2,4,6(1H, 3H, 5H)-trione], the 50% inhibitory concentration (IC50) in assay [1] was found to be 100 nM; in assay [2] it was 40 µM. In assay [1], the “SI (IC50(COX-1)/IC50 (COX-2)” value was 400.
